Molecular target: T1, Human Leukocyte Elastase (HLE) (Homo sapiens, UniProt P08246)
T1 sequence (P08246 30-247 limits assumed): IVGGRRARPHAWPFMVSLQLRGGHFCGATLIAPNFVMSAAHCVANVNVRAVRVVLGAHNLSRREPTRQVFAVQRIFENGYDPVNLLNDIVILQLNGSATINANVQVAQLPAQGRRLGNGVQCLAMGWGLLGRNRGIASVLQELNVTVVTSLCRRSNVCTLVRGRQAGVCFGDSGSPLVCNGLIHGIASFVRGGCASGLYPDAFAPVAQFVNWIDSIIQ
Assay: Inhibition of Human Leukocyte Elastase (HLE), hydrolysis of Methoxysuccinyl-Ala-Ala-Pro-Val-nitroanilide
Format: biochemical
Details: tris-HCl buffer pH 8.0, absorption at 410 nm, read-out: Inhibition of Elastase IC50, [Molar]
Description: Several biochemical and animal model tests can be used to examine the ability of the derivatives of the invention to prevent or alleviate the harmful biological action of elastase. The biochemical assays permit direct measurement of drug controlled inhibition of elastase fragmentation of proteins. […] In these tests, protease reaction with the substrate is measured in the presence and absence of the drug to be tested. Inhibition of protease action is indicated by a decrease in the amount of substrated fragmented. The basic parameters for such biochemical assays have been reported in the literature: J. Biol. Chem., 255, 5435 (1980); Biochem. Biophys Acta., 268, 257 (1973); Anal. Biochem. 48,9 (1972); and Biochemistry, 20, 3675 (1981). EXAMPLE 42 Inhibition of Human Leukocyte Elastase (HLE) This test measures the rate of hydrolysis of Methoxysuccinyl-[…]-nitroanilide by HLE in the presence and absence of the compound to be tested. The procedure used is as follows. […] The test hydrolysis solution was then prepared by adding 850 microliters buffer, 50 microliters derivative solution, 50 microliters peptide solution and 50 microliters of HLE solution to a 1 cm. semi-micro cuvette. The cuvette was capped, slightly shaken and placed in the light chamber of a recording colorimeter where the increase in absorption at 410 nm. due to liberated nitroaniline was measured. Using this procedure, the one minute change in absorption of the test sample containing derivative was compared to the change in absorption in the absence of derivative. A 20% or more decrease in the rate of absorption was interpreted as a positive inhibition.

Row | SMILES | IC50 [nM]
1 | CC(C)(C)C(=O)Oc1ccc(Cc2ccc(OC(=O)C(C)(C)C)cc2)cc1 [Example 39, 4,4'-dipivaloyloxydiphenylmethane] | 450
2 | CCCC(C)(C)C(=O)Oc1ccc(C(=O)c2ccc(OC(=O)C(C)(C)CCC)cc2)cc1 [Example 7, 4,4'-α,α-dimethylvaleroyloxybenzophenone] | 670
3 | CC(C)(C)C(=O)Oc1ccc(C(=O)c2ccccc2)cc1CCCO [Example 29, 3-(3-hydroxyoropyl)-4-pivaloyloxybenzophenone] | 350
4 | CC(C)(C)C(=O)Oc1ccc(C(=O)c2ccc(OC(=O)C(C)(C)C)cc2)cc1 [Example 1a, 4,4'-dipivaloyloxybenzophenone] | 60
5 | CC(C)C(=O)Oc1ccc(C(=O)c2ccc(OC(=O)C(C)C)cc2)cc1 [Example 40, 4,4'-diisobutyryloxybenzophenone] | 150
6 | CC(C)(C)C(=O)Oc1ccc(C(=O)c2ccc(OC(=O)C(C)(C)C)cc2OC(=O)C(C)(C)C)cc1 [Example 2, 2,4,4'-tripivaloyloxybenzophenone] | 55
7 | CC(C)(C)C(=O)Oc1ccc(Oc2ccc(OC(=O)C(C)(C)C)cc2)cc1 [Example 16, 4,4'-dipivaloyloxydiphenylether] | 460
8 | CC(C)C(=O)Oc1ccc(C(=O)c2ccccc2)cc1 [Example 34, 4-isobutyryloxybenzophenone] | 250
9 | C=CCc1cc(C(=O)c2ccccc2)ccc1OC(=O)C(C)(C)C [Example 26, 3-allyl-4-pivaloyloxybenzophenone] | 800
10 | CC(C)(C)C(=O)Oc1ccc(C(=O)c2ccccc2)cc1 [Example 1, 4-pivaloyloxybenzophenone] | 620
11 | CC(C)(C)OC(=O)Oc1ccc(C(=O)c2ccc(OC(=O)OC(C)(C)C)cc2)cc1 [Example 14, 4,4'-di(t-butyloxycarbonyloxy)benzophenone] | 900
12 | CC(C)(C)C(=O)Oc1ccc(C(=O)c2ccccc2)c(OC(=O)C(C)(C)C)c1 [Example 13, 2,4-dipivaloyloxybenzophenone] | 84
13 | CC(C)(C)C(=O)Oc1ccc(C(=O)c2ccc(Cl)cc2)cc1 [Example 6, 4-pivaloyloxy-4'-chlorobenzophenone] | 290
14 | CC(C)(C)C(=O)Oc1cc(C(=O)c2ccc(OC(=O)C(C)(C)C)c(OC(=O)C(C)(C)C)c2OC(=O)C(C)(C)C)cc(OC(=O)C(C)(C)C)c1OC(=O)C(C)(C)C [Example 9, 3,4,5,4',5',6',-hexapivaloyloxybenzophenone] | 360
15 | C=CC(C)c1cc(C(=O)c2ccccc2)ccc1OC(=O)C(C)(C)C (stereo not shown) [Example 27, 3-(1-methyl-allyl)-4-pivaloyloxybenzophenone] | 320
16 | C=C(C)Cc1cc(C(=O)c2ccccc2)ccc1OC(=O)C(C)(C)C [Example 25, 3-methallyl-4-pivaloyloxybenzophenone] | 85

From US4801610A, “Phenolic ester derivatives as elastase inhibitors” (G. D. Searle & Co., priority 1987, dated 1989)
